Measurements published in ChEMBL document CHEMBL3301361, “Experimental in vitro DMPK and physicochemical data on a set of publicly disclosed compounds”.

Assay: physchem
Conditions: octan-1-ol/water

SMILES | logD (pH 7.4, LogD7.4) | logD (pH 7.4)
Nc1ccccc1NC(=O)c1ccc(CNC(=O)OCc2cccnc2)cc1 [ENTINOSTAT] | 1.26 | 
CCCCc1ncc(/C=C(\Cc2cccs2)C(=O)O)n1Cc1ccc(C(=O)O)cc1 [EPROSARTAN] | -0.9 | 
NC(=O)N1c2ccccc2C[C@H](O)c2ccccc21 [ESLICARBAZEPINE] | 0.79 | 
C=C(CC)C(=O)c1ccc(OCC(=O)O)c(Cl)c1Cl [ETHACRYNIC ACID] | 0.02 | 
CCC1(C)CC(=O)NC1=O (stereo not given) [ETHOSUXIMIDE] |  | 0.23
CCc1cc2c(s1)-n1c(C)nnc1CN=C2c1ccccc1Cl [ETIZOLAM] |  | 2.52
C=C1C[C@@H]2[C@H](CC[C@]3(C)C(=O)CC[C@@H]23)[C@@]2(C)C=CC(=O)C=C12 [EXEMESTANE] |  | 2.98
NC(N)=Nc1nc(CSCCC(N)=NS(N)(=O)=O)cs1 [FAMOTIDINE] | -0.6 | 
O=C(O)Cc1csc(-c2ccc(Cl)cc2)n1 [FENCLOZIC ACID] | -0.22 | 
Oc1ccc(C2CNCCc3c2cc(O)c(O)c3Cl)cc1 (stereo not given) [FENOLDOPAM] | 0.87 | 
Cc1c(-c2ccccc2)oc2c(C(=O)OCCN3CCCCC3)cccc2c1=O [FLAVOXATE] | 3.42 | 
CC(=O)[C@@]1(O)CC[C@H]2[C@@H]3C[C@H](C)C4=CC(=O)C=C[C@]4(C)[C@@]3(F)[C@@H](O)C[C@@]21C [FLUOROMETHOLONE] | 2.65 | 
CCN(CC)CCN1C(=O)CN=C(c2ccccc2F)c2cc(Cl)ccc21 [FLURAZEPAM] |  | 2.38
COc1ccc(-c2coc3cc(O)ccc3c2=O)cc1 [FORMONONETIN] | 3.05 | 
CCOC(=O)c1ccc(OC(=O)CCCCCNC(=N)N)cc1 [GABEXATE] | 2.41 | 
Nc1ccn([C@@H]2O[C@H](CO)[C@@H](O)C2(F)F)c(=O)n1 [GEMCITABINE] | -1.5 | 
O=c1c(-c2ccc(O)cc2)coc2cc(O)cc(O)c12 [GENISTEIN] | 3.06 | 
O=C(OCC(O)CO)c1ccccc1Nc1ccnc2cc(Cl)ccc12 (stereo not given) [GLAFENINE] | 3.5 | 
Cc1cc2c(C(C)C)c(O)c(O)c(C=O)c2c(O)c1-c1c(C)cc2c(C(C)C)c(O)c(O)c(C=O)c2c1O [GOSSYPOL] |  | 2.75
COc1ccccc1OCC(O)CO (stereo not given) [GUAIFENESIN] | 0.24 | 
COc1ccc(COc2ccc(Cc3cnc(N)nc3N)cc2OC)cc1 [GW632580X] | 2.27 | 
CN1C(=O)NC(=O)C(C)(C2=CCCCC2)C1=O (stereo not given) [HEXOBARBITAL] |  | 1.5

SMILES | logD (pH 7.4, LogD7.4) | logD (pH 7.4)
CN1CCCN(C(c2ccccc2)c2ccc(Cl)cc2)CC1 (stereo not given) [HOMOCHLORCYCLIZINE] | 2.36 | 
CCN(CCO)CCCC(C)Nc1ccnc2cc(Cl)ccc12 (stereo not given) [HYDROXYCHLOROQUINE] | 0.77 | 
OCCOCCN1CCN(C(c2ccccc2)c2ccc(Cl)cc2)CC1 (stereo not given) [HYDROXYZINE] | 3.08 | 
CN(C(=O)Cc1ccc(Cl)c(Cl)c1)[C@H](CN1CCCC1)c1ccccc1 [ICI-199,441] |  | 3.42
COc1cc(C(=O)NS(=O)(=O)c2ccccc2)ccc1Cn1ncc2ccc(NC(=O)OC3CCCC3)cc21 [ICI-198615] | 1.8 | 
Oc1ccc(C2=Cc3ccc(O)cc3OC2)cc1 [IDRONOXIL] | 3.8 | 
Oc1c(I)cc(I)c2cccnc12 [IODOQUINOL] | 2.19 | 
CC(C)NC[C@@H](C(=O)N1CCN(c2ncnc3c2[C@H](C)C[C@H]3O)CC1)c1ccc(Cl)cc1 [IPATASERTIB] | 1.3 | 
CN(C)CCCn1c2c(c3ccccc31)CCCCCC2 [IPRINDOLE] | 2.96 | 
CC(C)NNC(=O)c1ccncc1 [IPRONIAZID] | 0.33 | 
NNC(=O)c1ccncc1 [ISONIAZID] | -0.57 | 
c1ccc2cnccc2c1 [ISOQUINOLINE] | 1.6 | 
CC(C)[C@@H](CN1CC[C@@](C)(c2cccc(O)c2)[C@@H](C)C1)NC(=O)[C@H]1Cc2ccc(O)cc2CN1 [JDTIC] |  | 2.39
O=C(c1ccccc1)c1ccc2n1CCC2C(=O)O (stereo not given) [KETOROLAC] | -0.93 | 
CCCc1c(OCCCSc2ccc(CC(=O)O)cc2Cl)ccc2c(CC)noc12 [L-165461] | 3.92 | 
c1ccc([C@H]2CN3CCSC3=N2)cc1 [LEVAMISOLE] | 0.81 | 
COc1ccc2c(c1)N(C[C@H](C)CN(C)C)c1ccccc1S2 [LEVOMEPROMAZINE] | 2.99 | 
CC1(C)Cc2c(-c3ccccc3)c(-c3ccc(Cl)cc3)c(CC(=O)O)n2C1 [LICOFELONE] | 3.07 | 
O=c1[nH]c2cc(Cl)c(Cl)c([N+](=O)[O-])c2[nH]c1=O [LICOSTINEL] | 0.21 | 
CC(Oc1c(Cl)cccc1Cl)C1=NCCN1 (stereo not given) [LOFEXIDINE] | 0.48 | 
CC(C)(N)C(=O)N[C@H](Cc1c[nH]c2ccccc12)C(=O)N[C@H](Cc1c[nH]c2ccccc12)NC=O [MACIMORELIN] | 1 | 
CNC1(C)C2CCC(C2)C1(C)C (stereo not given) [MECAMYLAMINE] | -0.84 | 

SMILES | logD (pH 7.4, LogD7.4) | logD (pH 7.4)
Cc1ccc(Cl)c(Nc2ccccc2C(=O)O)c1Cl [MECLOFENAMIC ACID] | 2.33 | 
CC(=O)[C@H]1CC[C@H]2[C@@H]3C[C@H](C)C4=CC(=O)CC[C@]4(C)[C@H]3[C@@H](O)C[C@]12C [MEDRYSONE] | 3.25 | 
CCC1(c2ccccc2)NC(=O)N(C)C1=O (stereo not given) [MEPHENYTOIN] | 1.59 | 
CCC1(c2cccc(O)c2)CCCCN(C)C1 (stereo not given) [MEPTAZINOL] |  | 0.8
CN1CCCCC1CCN1c2ccccc2Sc2ccc([S+](C)[O-])cc21 (stereo not given) [MESORIDAZINE] | 1.6 | 
COc1ccccc1OCC(O)COC(N)=O (stereo not given) [METHOCARBAMOL] | 0.36 | 
Cc1ccccc1N1C(=O)c2cc(S(N)(=O)=O)c(Cl)cc2NC1C (stereo not given) [METOLAZONE] | 1.64 | 
CN1CCN2c3ncccc3Cc3ccccc3C2C1 (stereo not given) [MIRTAZAPINE] | 2.82 | 
NC(=O)C[S+]([O-])C(c1ccccc1)c1ccccc1 (stereo not given) [MODAFINIL] |  | 1.12
CCc1c(C)[nH]c2c1C(=O)C(CN1CCOCC1)CC2 (stereo not given) [MOLINDONE] | 1.54 | 
COc1ccc2cc(CCC(C)=O)ccc2c1 [NABUMETONE] | 3.06 | 
CCn1cc(C(=O)O)c(=O)c2ccc(C)nc21 [NALIDIXIC ACID] |  | -0.1
Oc1ccc2c3c1O[C@H]1c4[nH]c5ccccc5c4C[C@@]4(O)[C@@H](C2)N(CC2CC2)CC[C@]314 [NALTRINDOLE] |  | 2.7
O=C1C=CC(=O)c2c(O)ccc(O)c21 [NAPHTHAZALIN] |  | 1.91
CC1(C)CCC(NC(=O)[C@@H](N)CCC(=O)O)CC1 [NEBOGLAMINE] |  | -0.27
Cc1cnc(NC(=O)c2cc(Oc3cnc(C(=O)N(C)C)nc3)c3cc(C)oc3c2)cn1 [NERIGLIATIN] | 2.1 | 
CN1CCC[C@H]1c1cccnc1 [NICOTINE] |  | 0.5
O=C(O)c1cccnc1Nc1cccc(C(F)(F)F)c1 [NIFLUMIC ACID] | 1 | 
NC(=O)c1cc([N+](=O)[O-])cc([N+](=O)[O-])c1 [NITROMIDE] |  | 0.81
CC(C)Oc1cccc(CC(=O)N2CCC[C@](CC[N+]34CCC(c5ccccc5)(CC3)CC4)(c3ccc(Cl)c(Cl)c3)C2)c1 [NOLPITANTIUM] |  | 1.23
Oc1ccc2c3c1O[C@H]1c4[nH]c5c(c4C[C@@]4(O)[C@@H](C2)N(CC2CC2)CC[C@]314)C[C@@]1(O)[C@H]2Cc3ccc(O)c4c3[C@@]1(CCN2CC1CC1)[C@H]5O4 [NORBINALTORPHIMINE] |  | 1.41
CCn1cc(C(=O)O)c(=O)c2cc(F)c(N3CCNCC3)cc21 [NORFLOXACIN] | -0.87 | 

SMILES | logD (pH 7.4, LogD7.4) | logD (pH 7.4)
COc1ncc(-c2ccc3nccc(-c4ccnnc4)c3c2)cc1NS(=O)(=O)c1ccc(F)cc1F [OMIPALISIB] | 2.5 | 
O=c1c(-c2ccc(O)c(O)c2)coc2cc(O)cc(O)c12 [OROBOL] | 2.45 | 
Cc1[nH]c2ccccc2c1CCNCc1ccc(/C=C/C(=O)NO)cc1 [PANOBINOSTAT] | 1.1 | 
COc1ccnc(C[S+]([O-])c2nc3ccc(OC(F)F)cc3[nH]2)c1OC (stereo not given) [PANTOPRAZOLE] | 2 | 
CC(=O)CCCCn1c(=O)c2c(ncn2C)n(C)c1=O [PENTOXIFYLLINE] | 0.22 | 
NCCCC(=O)OCCN1CCN(CCCN2c3ccccc3Sc3ccc(Cl)cc32)CC1 [PERPHENAZINE 4-AMINOBUTYRATE] | 1.5 | 
CN(c1ncccc1CNc1nc(Nc2ccc3c(c2)CC(=O)N3)ncc1C(F)(F)F)S(C)(=O)=O [PF-00562271] | 2.63 | 
OCCn1cc(-c2cnc3nnn(Cc4ccc5ncccc5c4)c3n2)cn1 [PF-04217903] | 1.7 | 
CC(C)CNCc1ccc(-c2ccccc2S(=O)(=O)N2CCCC2)cc1 [PF-04455242] | 1.9 | 
Nc1ccc(/N=N/c2ccccc2)c(N)n1 [PHENAZOPYRIDINE] | 3.22 | 
NNCCc1ccccc1 [PHENELZINE] | -0.01 | 
CCC1(c2ccccc2)C(=O)NC(=O)NC1=O [PHENOBARBITAL] |  | 0.05
CN1C(=O)CC(c2ccccc2)C1=O (stereo not given) [PHENSUXIMIDE] | 0.68 | 
CN(C)CCOc1ccccc1Cc1ccccc1 [PHENYLTOLOXAMINE] | 2.53 | 
COc1ccc(C(=O)NCc2cccnc2)cc1C(=O)NCc1cccnc1 [PICOTAMIDE] | 1.23 | 
NS(=O)(=O)c1cc(C(=O)O)cc(N2CCCC2)c1Oc1ccccc1 [PIRETANIDE] | -0.94 | 
O=C(N[C@H]1CN2CCC1CC2)c1ccc(Cl)cc1 [PNU-282987] |  | 0.6
CCCN[C@H]1CCc2nc(N)sc2C1 [PRAMIPEXOLE] | 3.15 | 
O=C(C1CCCCC1)N1CC(=O)N2CCc3ccccc3C2C1 (stereo not given) [PRAZIQUANTEL] | 2.43 | 
